Measurements published in publication PMC5743070 (The Journal of Biological Chemistry, 2017).
Where “and” joins values, the source holds several entries; their conditions need not be identical. Equal entries are not always repeated. Where two headings read alike, the source gives them in different places.

How the values were obtained:
TTD (UHRF1_121–286) [1] = molecular target: T1, TTD (UHRF1_121–286) (Homo sapiens, UniProt Q96T88); assay: ITC of BPC binding to TTD
T1 construct: UHRF1_121–286 corresponding to the TTD; made in house
T1 sequence (Q96T88 121-286): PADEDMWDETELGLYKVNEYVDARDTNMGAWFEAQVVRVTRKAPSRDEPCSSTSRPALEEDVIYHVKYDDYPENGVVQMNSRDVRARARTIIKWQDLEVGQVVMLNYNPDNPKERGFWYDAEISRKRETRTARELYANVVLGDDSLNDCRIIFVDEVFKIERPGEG
Protocol: For ITC measurements of TTD–PHD (UHRF1_126–366) interaction with H3K9me3, samples were dialyzed into a buffer containing 10 mM HEPES (pH 7.5), 150 mM NaCl, 1 mM TCEP, and 30 μM ZnCl2. […] A preliminary peptide injection of 0.06 μl was followed by subsequent 2-μl injections into the sample cell containing 167 μl of 50 μM TTD–PHD. Where indicated, 1.5 mM BPC or 1.5 mM PBR peptide was included in the injection syringe and sample cell. The reported KD and n values are based on the average from two measurements. For ITC measurements of TTD (UHRF1_121–286) interaction with BPC, the protein was buffered in 20 mM Tris (pH 7.4), 50 mM NaCl, and 5% DMSO. BPC was brought to a concentration of 2.5 mM and injected into the sample cell containing 40 μM protein. The data were acquired on a Nano ITC from TA Instruments at 25 °C and fitted with an independent-binding site model using NanoAnalyze software (v3.7.0). […]
Binding of BPC in the groove of TTD.
labeled (at the N-terminus) H3K9me3(1-25) peptide, (B) ITC, and (C) DSF. […]

TTD (UHRF1_121–286) [2] = molecular target: T1, TTD (UHRF1_121–286); assay: DSF thermal shift of TTD; format: binding; settings: 0.1 mg/ml TTD, absence and presence of 3 mM BPC, 0.1 M HEPES pH 7.5, 0.15 M NaCl, 5× Sypro Orange, 4 °C/min
Protocol: DSF measurements were performed with a Light Cycler 480 II instrument from Roche Applied Science. TTD (UHRF1_121–286) was buffered at 0.1 mg/ml in 0.1 M HEPES (pH 7.5), 0.15 M NaCl, and 5× Sypro Orange. Sypro Orange was purchased from Invitrogen as a 5,000× stock solution, and it was diluted 1:1,000 to yield a 5× working concentration. Experiments were run in the absence and presence of 3 mM BPC. DSF was carried out by increasing the temperature from 20 to 95 °C at a heating rate of 4 °C/min, and data points were collected at 1 °C intervals. The temperature scan curves were fitted to a Boltzmann sigmoid function, and the Tm values were obtained from the midpoint of the transition as described previously ([47]).
Figure S5 (related to Fig. 4)
Binding of BPC in the groove of TTD. […]
labeled (at the N-terminus) H3K9me3(1-25) peptide, (B) ITC, and (C) DSF. (D) KD estimates of BPC bind-ing based on I211 and Y239 amide peak movement (where Δ(ppm) = ((ΔδHN)2 + (ΔδN/6.5)2 )1⁄2) in (1H-15N) HSQC spectra when the TTD is titrated with BPC. […]
as a function of TTD sequence resulting from BPC (blue) or PBR peptide (red) binding. (F) HSQC overlays […]
ment:protein), and PBR peptide ratios (bottom spectrum - from 1:1 to 5:1 peptide:protein). The protein con-centration was ~250 µM for all NMR experiments, and the DMSO concentration was 5% for NMR titrations […]

TTD (UHRF1_121–286) [3] = molecular target: T1, TTD (UHRF1_121–286); assay: HSQC competition of BPC and linker peptide on TTD; format: binding; settings: BPC 2.4 mM, linker peptide 3.0 mM, 5% DMSO; I211, I212 and E281 resonances in HSQC
Protocol: NMR samples were buffered in 20 mM sodium phosphate (pH 7.5), 150 mM NaCl, 5 mM DTT, 5 mM β-mercaptoethanol, 2 mM TCEP, and 10 μM ZnSO4. The protein concentration was between 200 and 300 μM for all samples. The data were collected at 25 °C on Bruker spectrometers equipped with cryoprobes and operating at 500, 600, or 800 MHz. The assignment of backbone TTD–PHD resonances was accomplished using the ABACUS method ([29]) for which standard backbone and ^15N-edited NOESY spectra were collected using ^15N/^13C/^2H- or ^15N/^13C-labeled protein. All 3D experiments were acquired using non-uniform sampling and processed using the software MDDGUI ([30]) or qMDD ([31]). ^15N-Labeled TTD–PHD was used to acquire ^15N T1 and T2 relaxation and ^1H-^15N heteronuclear NOE measurements ([32]) collected using standard Bruker pulse schemes in an interleaved manner. For T1 measurements, the variable delay was set to 0.1, 0.4, 0.8, 1.5, 2.0, 2.5, 3.5, and 5 s. For T2 measurements, the variable delay was set to 16, 32, 48, 64, 80, 96, 128, and 144 ms. The D1 was 3 s for all experiments. Reported values were the average from two measurements. All spectra were processed using NMRPipe ([33]) and analyzed with SPARKY ([34]). […]
trated by the perturbation of I211, I212 and E281 resonances in HSQC spectra of the TTD in a competition assay. […]

[4] = ITC, 2.5 mM BPC into 40 μM TTD, pH 7.4, 5% DMSO, 25 °C

Structure (SMILES): N=C(N)N1CCC(Cc2ccccc2)CC1 [BPC, 4-benzylpiperidine-1-carboximidamide]
- Kd (TTD (UHRF1_121–286) [1]; ITC, 2.5 mM BPC into 40 μM TTD, 20 mM Tris pH 7.4, 50 mM NaCl, 5% DMSO, 25 °C, independent-binding site model, read-out: KD): 46 µM
- H (enthalpy of binding, ITC) (TTD (UHRF1_121–286) [1]; [4]): -2.6 kcal/mol
- S (entropy of binding, ITC) (TTD (UHRF1_121–286) [1]; [4]): 11.0 cal/mol∙K
- calculated ligand efficiency (binding energy per heavy atom) (TTD (UHRF1_121–286) [1]; calculated from KD for TTD): 0.38
- Kd (TTD (UHRF1_121–286) [1]; isolated TTD, estimated using ITC and DSF, read-out: estimated KD): 50 µM and ~50 µM
- ΔTm (thermal shift) (TTD (UHRF1_121–286) [2]): 2.9 °C
- competition for the TTD groove (TTD (UHRF1_121–286) [3]): compete directly for the TTD groove
